One series has as its target GSK3β (Homo sapiens, UniProt P49841). Kind of series: Inhibitory activity against GSK3β (TPK1), 33P-ATP phosphorylation of GS1 peptide. Particulars: TPK1 = GSK3β (b5); table 4. It is filed as biochemical. The protocol:
Two different protocols can be used.
In a first protocol: 7.5 μM of prephosphorylated GS1 peptide and 10 μM ATP (containing 300,000 cpm of 33P-ATP) were incubated in 25 mM Tris-HCl, pH 7.5, 0.6 mM DTT, 6 mM MgCl2, 0.6 mM EGTA, 0.05 mg/ml BSA buffer for 1 hour at room temperature in the presence of GSK3β (total reaction volume: 100 microliters).
In a second protocol: 4.1 μM of prephosphorylated GS1 peptide and 42 μM ATP (containing 260,000 cpm 33P-ATP) were incubated in 80 mM Mes-NaOH, pH 6.5, 1 mM Mg acetate, 0.5 mM EGTA, 5 mM 2-mercaptoethanol, 0.02% Tween 20, 10% glycerol buffer for 2 hours at room temperature in the presence of GSK3β.
Inhibitors were solubilized in DMSO (final solvent concentration in the reaction medium, 1%).
The reaction was stopped with 100 microliters of a solution made of 25 g polyphosphoric acid (85% P2O5), 126 ml 85% H3PO4, H2O to 500 ml and then diluted to 1:100 before use. An aliquot of the reaction mixture was then transferred to Whatman P81 cation exchange filters and rinsed with the solution described above. Incorporated 33P radioactivity was determined by liquid scintillation spectrometry.
The phosphorylated GS-1 peptide had the following sequence: NH2-[…](P)EDEE-COOH.
The GSK3β inhibitory activity of the compounds of the present invention are expressed in IC50, and as an illustration the range of IC50's of the compounds in table 1 is between 4 nanomolar to 2 micromolar concentrations, of the compounds in table 2 is between 30 nanomolar to 2 micromolar concentrations and of the compounds in table three is between 1 nanomolar to 2 micromolar.

The next series addresses cdk5/p25 (Homo sapiens, UniProt Q00535). Kind of series: Inhibitory activity against cdk5/p25 (TPK2), 33P-ATP phosphorylation of Histone H1. It is filed as biochemical. Particulars: TPK2 = cdk5/p25 (b7); table 4. On the procedure:
The following protocol may be used: 0.4 mg/ml Histone H1 and 10 μM ATP (containing 300,000 cpm of ^33P-ATP) were incubated in 50 mM Hepes, pH 7.2, 1 mM DTT, 1 mM MgCl2, 1 mM EGTA, 0.02% Tween 20 buffer for 1 hour at room temperature in the presence of cdk5/p25 (total reaction volume: 100 microliters). Inhibitors were solubilized in DMSO (final solvent concentration in the reaction medium, 1%). The reaction was stopped with 100 microliters of a solution of 25 g polyphosphoric acid (85% P2O5), 126 ml 85% H3PO4, H2O to 500 ml (diluted to 1:100 before use). An aliquot of the reaction mixture was then transferred to Whatman P81 cation exchange filters and rinsed with the solution described above. Incorporated ^33P radioactivity was determined by liquid scintillation spectrometry. The cdk5/p25 inhibitory activity of the compounds of the present invention are expressed as IC50 values. Typically, 3-fold serial dilutions of the inhibitor over at least a 1000-fold concentration range are used.

Chain of GSK3β (P49841 whole entry, species assumed): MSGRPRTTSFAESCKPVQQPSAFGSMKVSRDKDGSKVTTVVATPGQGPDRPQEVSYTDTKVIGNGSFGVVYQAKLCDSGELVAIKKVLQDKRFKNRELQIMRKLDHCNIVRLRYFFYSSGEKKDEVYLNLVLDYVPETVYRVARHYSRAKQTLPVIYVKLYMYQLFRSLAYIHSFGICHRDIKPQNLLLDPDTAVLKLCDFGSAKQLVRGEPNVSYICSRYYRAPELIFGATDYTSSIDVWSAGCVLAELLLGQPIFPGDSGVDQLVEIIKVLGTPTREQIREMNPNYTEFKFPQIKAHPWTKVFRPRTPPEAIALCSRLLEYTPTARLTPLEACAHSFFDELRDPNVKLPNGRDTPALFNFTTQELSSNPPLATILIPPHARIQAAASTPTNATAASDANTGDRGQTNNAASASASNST
Chain of cdk5/p25 (Q00535 whole entry, species assumed): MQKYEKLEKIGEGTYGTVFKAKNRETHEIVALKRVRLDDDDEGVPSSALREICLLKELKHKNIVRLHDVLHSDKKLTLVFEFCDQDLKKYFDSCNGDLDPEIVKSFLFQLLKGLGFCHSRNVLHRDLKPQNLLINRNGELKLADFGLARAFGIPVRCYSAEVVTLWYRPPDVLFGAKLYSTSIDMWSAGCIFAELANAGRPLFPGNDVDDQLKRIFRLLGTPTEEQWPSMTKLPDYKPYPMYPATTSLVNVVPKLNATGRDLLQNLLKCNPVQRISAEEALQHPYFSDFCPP
Chain of cdk5/p25 (Q15078 99-307 partner limits assumed, species assumed): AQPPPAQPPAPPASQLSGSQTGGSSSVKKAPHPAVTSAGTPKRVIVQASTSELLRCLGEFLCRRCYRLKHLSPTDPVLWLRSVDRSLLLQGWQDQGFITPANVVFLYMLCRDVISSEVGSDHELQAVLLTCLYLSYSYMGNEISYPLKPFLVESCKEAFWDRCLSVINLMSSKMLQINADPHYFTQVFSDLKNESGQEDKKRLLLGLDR

Regarding `CC1CCn2c(nc(-c3ccncc3)cc2=O)N1C[C@@H](O)c1ccccc1` (mixture of isomers) [Table 3 Compound 7, 9-[2(S)-Hydroxy-2-phenyl-ethyl]-8-methyl-2-(pyridin-4-yl)-6,7,8,9-tetrahydro-pyrimido[1,2-a]pyrimidin-4-one], the IC50 against GSK3β worked out at 4 nM; on cdk5/p25 it was 344 nM.
`O=C(CN1CCCn2c1nc(-c1ccncc1)c(Br)c2=O)c1ccccc1` [Table 1 Compound 40, 9-(2-Oxo-2-phenyl-ethyl)-3-bromo-2-(pyridin-4-yl)-6,7,8,9-tetrahydro-4H-pyrimido[1,2-a]pyrimidin-4-one]: the values for the IC50 on GSK3β and against cdk5/p25 were 5 nM and 77 nM, respectively.
For `Cc1ccc([C@H](O)CN2c3nc(-c4ccncc4)cc(=O)n3CCC2(C)C)cc1` [Table 3 Compound 32, 9-(2(S)-Hydroxy-2-p-tolyl-ethyl)-8,8-dimethyl-2-(pyridin-4-yl)-6,7,8,9-tetrahydro-pyrimido[1,2-a]pyrimidin-4-one], the IC50 against GSK3β was 1 nM; at cdk5/p25, > 1000 nM.
As for `O=C(CN1CCCn2c1nc(-c1ccncc1)c(Cl)c2=O)c1ccccc1` [Table 1 Compound 39, 9-(2-Oxo-2-phenyl-ethyl)-3-chloro-2-(pyridin-4-yl)-6,7,8,9-tetrahydro-4H-pyrimido[1,2-a]pyrimidin-4-one], the figures for the IC50 on GSK3β and on cdk5/p25 were 4 nM and 62 nM, respectively.
Compound `CC1CCn2c(nc(-c3ccncc3)c(F)c2=O)N1CC(=O)c1ccccc1` (racemic) [Table 3 Compound 18, 3-Fluoro-8-methyl-9-(2-oxo-2-phenyl-ethyl)-2-(pyridin-4-yl)-6,7,8,9-tetrahydro-pyrimido[1,2-a]pyrimidin-4-one] gave a melting point of 201 to 202 °C.
As to `O=c1cc(-c2ccncc2)nc2n1CC(F)(F)CN2C[C@@H](O)c1ccccc1` [Table 1 Compound 5, 9-(2(S)-Hydroxy-2-phenyl-ethyl)-7,7-difluoro-2-(pyridin4-yl)-6,7,8,9-tetrahydro-4H-pyrimido[1,2-a]pyrimidin-4-one], the values for the IC50 at GSK3β and against cdk5/p25 were 60 nM and 67 nM, respectively.
In the case of `CC1(C)CN(C[C@@H](O)c2ccccc2)c2nc(-c3ccncc3)c(F)c(=O)n2C1` [Table 1 Compound 12, 9-(2(S)-Hydroxy-2-phenyl-ethyl)-3-fluoro-7,7-dimethyl-2-(pyridin-4-yl)-6,7,8,9-tetrahydro-4H-pyrimido[1,2-a]pyrimidin-4-one], the IC50 against GSK3β worked out at 11 nM; on cdk5/p25, 334 nM.
Regarding `O=C(CN1CCCn2c1nc(-c1ccncc1)c(F)c2=O)c1cccc(F)c1` [Table 1 Compound 37, 9-[2-Oxo-2-(3-fluorophenyl)-ethyl]-3-fluoro-2-(pyridin-4-yl)-6,7,8,9-tetrahydro-4H-pyrimido[1,2-a]pyrimidin-4-one], the IC50 at GSK3β stood at 4 nM; at cdk5/p25 it was 4600 nM.
For the compound `O=c1c(Cl)c(-c2ccncc2)nc2n1CCCN2C[C@@H](O)c1ccccc1` [Table 1 Compound 42, 9-(2(S)-Hydroxy-2-phenyl-ethyl)-3-chloro-2-(pyridin-4-yl)-6,7,8,9-tetrahydro-4H-pyrimido[1,2-a]pyrimidin-4-one], the IC50 was found to be 28 nM against GSK3β and 154 nM on cdk5/p25.
In the case of `O=c1c(F)c(-c2ccncc2)nc2n1CCCN2C[C@@H](O)c1ccccc1` [Table 1 Compound 44, 9-(2(S)-Hydroxy-2-phenyl-ethyl)-3-fluoro-2-(pyridin-4-yl)-6,7,8,9-tetrahydro-4H-pyrimido[1,2-a]pyrimidin-4-one], the 50% inhibitory concentration (IC50) against GSK3β is 6 nM; against cdk5/p25, > 1000 nM.
For `CO[C@H](CN1CCCn2c1nc(-c1ccncc1)c(F)c2=O)c1ccccc1` [Table 1 Compound 45, 9-(2(S)-Methoxy-2-phenyl-ethyl)-3-fluoro-2-(pyridin-4-yl)-6,7,8,9-tetrahydro-4H-pyrimido[1,2-a]pyrimidin-4-one], the IC50 on GSK3β is 6 nM; on cdk5/p25, > 1000 nM.

By IC50 is commonly meant the midpoint of a concentration-inhibition curve. A lower IC50 goes with greater potency. The melting point is the temperature, or range, at which the solid turns liquid.

The record behind these values is patent US7214682B2, “Substituted 2-pyridinyl-6,7,8,9-tetrahydropyrimido{1,2-a}pyrimidin-4-one and 7-pyridinyl-2,3-dihydroimidazo{1,2-a}pyrimidin-5(1h)one derivatives” (Sanofi-aventis, priority 2001, dated 2007).
